From patent EP1643252B1 (priority 2004, dated 2009) come the findings set out here.

The subject of one assay is PrP^Sc. The note with it: brain homogenate of prion disease infected animal and human; biotinylated peptide on streptavidin magnetic beads.
A further assay relates to cellular prion protein. Particulars: from individual with no prion disease.

As to WQPPRARI [peptide-1], in the assay with PrP^Sc, the “ability to capture PrP^Sc from brain homogenate” value (from here on “ability to capture PrP^Sc”) was “capture PrP^Sc”. Besides, in the assay on cellular prion protein, the “capture of cellular prion protein” value is “do not capture cellular prion protein”.
For the sequence NYKKPKLG [peptide-3], the “ability to capture PrP^Sc” value in the assay with PrP^Sc is on record as “capture PrP^Sc”. In addition, the “capture of cellular prion protein” value with cellular prion protein is on record as “do not capture cellular prion protein”.
On the same counts, the results for YRGRYGYKGKYGYRG [peptide-6] are “capture PrP^Sc” and “do not capture cellular prion protein”.
On the same counts, the results for NWCKRGRKNCKTH [peptide-2] are “capture PrP^Sc” and “do not capture cellular prion protein”.
Turning to AQKKDGKKRKRSRKESYSIYV [peptide-7], in the assay on PrP^Sc, the “ability to capture PrP^Sc” value is recorded as “capture PrP^Sc”. For the same sequence, the “capture of cellular prion protein” value with cellular prion protein is recorded as “do not capture cellular prion protein”.
For YRGYRGYRGYRG [peptide-5], the “ability to capture PrP^Sc” value in the assay on PrP^Sc is recorded as “capture PrP^Sc”. The “capture of cellular prion protein” value with cellular prion protein is listed as “do not capture cellular prion protein”.
